Results from PubChem BioAssay AID2060621 (Molecular Pharmacology Branch, DTP, NCI, 2025).

Tested on: 324938-238-R-J1-PDC complex spheroids viability
Assay: Anticancer human tumor 324938-238-R-J1-PDC patient-derived bladder carcinoma cell line growth inhibition [CLK]
Details: for IC50: curve of first compound; for viability, T/C: stronger effect = lower value
Procedure, shortened: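 Patient-derived tumor cells grown as complex spheroids with HUVEC endothelial cells and mesenchymal stem cells, treated with drug combinations. Concentrations descend in half-log steps from near clinical Cmax, or from 10 microM if Cmax unknown.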
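Note: viability read after seven days of drug exposure.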
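Throughout, for viability, T/C: 100% = DMSO vehicle control wells.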

CCN1CCN(Cc2ccc(Nc3ncc(F)c(-c4cc(F)c5nc(C)n(C(C)C)c5c4)n3)nc2)CC1 + CN1CCN(c2cc(C(=O)Nc3cc4cc(-c5cnn(C)c5)ccc4cn3)ccn2)CC1
IC50 (second compound 0.0316 µM): 64.8 nM | IC50 (second compound 0.1 µM): 5.84 nM | IC50 (second compound 0.316 µM): < 3.16 nM | IC50 (second compound 1 µM): < 3.16 nM | IC50 (second compound 3.16 µM): < 3.16 nM | IC50 (second compound 10 µM): < 3.16 nM | viability, T/C (second compound 0.0316 µM, first compound 0.00316 µM): 65% | viability, T/C (second compound 0.0316 µM, first compound 0.01 µM): 72.9% | viability, T/C (second compound 0.0316 µM, first compound 0.0316 µM): 56.3% | viability, T/C (second compound 0.0316 µM, first compound 0.1 µM): 46.5% | viability, T/C (second compound 0.0316 µM, first compound 0.316 µM): 34.2% | viability, T/C (second compound 0.0316 µM, first compound 1 µM): 35.5% | viability, T/C (second compound 0.1 µM, first compound 0.00316 µM): 53% | viability, T/C (second compound 0.1 µM, first compound 0.01 µM): 47.2% | viability, T/C (second compound 0.1 µM, first compound 0.0316 µM): 42.1% | viability, T/C (second compound 0.1 µM, first compound 0.1 µM): 42.3% | viability, T/C (second compound 0.1 µM, first compound 0.316 µM): 34.2% | viability, T/C (second compound 0.1 µM, first compound 1 µM): 31.3% | viability, T/C (second compound 0.316 µM, first compound 0.00316 µM): 23.8% | viability, T/C (second compound 0.316 µM, first compound 0.01 µM): 24.7% | viability, T/C (second compound 0.316 µM, first compound 0.0316 µM): 25% | viability, T/C (second compound 0.316 µM, first compound 0.1 µM): 25.1% | viability, T/C (second compound 0.316 µM, first compound 0.316 µM): 28.2% | viability, T/C (second compound 0.316 µM, first compound 1 µM): 31.1% | viability, T/C (second compound 1 µM, first compound 0.00316 µM): 1.45% | viability, T/C (second compound 1 µM, first compound 0.01 µM): 1.54% | viability, T/C (second compound 1 µM, first compound 0.0316 µM): 1.57% | viability, T/C (second compound 1 µM, first compound 0.1 µM): 2.36% | viability, T/C (second compound 1 µM, first compound 0.316 µM): 1.73% | viability, T/C (second compound 1 µM, first compound 1 µM): 0.69% | viability, T/C (second compound 3.16 µM, first compound 0.00316 µM): 0.12% | viability, T/C (second compound 3.16 µM, first compound 0.01 µM): 0.84% | viability, T/C (second compound 3.16 µM, first compound 0.0316 µM): 0.19% | viability, T/C (second compound 3.16 µM, first compound 0.1 µM): 0.14% | viability, T/C (second compound 3.16 µM, first compound 0.316 µM): 0.32% | viability, T/C (second compound 3.16 µM, first compound 1 µM): 0.84% | viability, T/C (second compound 10 µM, first compound 0.00316 µM): 0.09% | viability, T/C (second compound 10 µM, first compound 0.01 µM): 0.19% | viability, T/C (second compound 10 µM, first compound 0.0316 µM): 0.2% | viability, T/C (second compound 10 µM, first compound 0.1 µM): 0.11% | viability, T/C (second compound 10 µM, first compound 0.316 µM): 0.15% | viability, T/C (second compound 10 µM, first compound 1 µM): 0.2%
